In paper PMC12593396 (2025):

Test system: 3WJ (PAGE) (DNA, junction) CGGAACGGCACTCG/CGAGTGCAGCGTGG/CCACGCTCGTTCCG
Experiment: PAGE junction assembly
Conditions: 10 mM NaCl, 1x TB

SMILES | binding (0.1 to 5 equivalents) | binding
[Pt+2].[Pt+2].c1cncc(Oc2ccc(Oc3cccnc3)cc2)c1.c1cncc(Oc2ccc(Oc3cccnc3)cc2)c1.c1cncc(Oc2ccc(Oc3cccnc3)cc2)c1.c1cncc(Oc2ccc(Oc3cccnc3)cc2)c1 | yes | –
C(=Nc1ccc(Cc2ccc(N=Cc3ccccn3)cc2)cc1)c1ccccn1.C(=Nc1ccc(Cc2ccc(N=Cc3ccccn3)cc2)cc1)c1ccccn1.C(=Nc1ccc(Cc2ccc(N=Cc3ccccn3)cc2)cc1)c1ccccn1.[Ni+2].[Ni+2] | – | yes
